From patent US20220378923A1, “BET DEGRADER” (KYOWA KIRIN CO., LTD., priority 2019, published 2022)
Read-outs that look alike come from different tables or passages of the source.

Assays:
[1] = system: MYC mRNA expression in SU-DHL-4 cells; test: Suppressive effect on MYC mRNA expression (Test Example 2); format: cell-based, human; conditions: test compound 100 nmol/L, 6 hours, qRT-PCR corrected by ACTB, GAPDH; for inhibition at 0.1 µM: Homo sapiens, HPRT1, read-out: Suppression Rate of MYC mRNA Expression (%); for Suppression Rate of MYC mRNA Expression (%): HPRT1
Summary of the method: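 SU-DHL-4 cells were treated for 6 h at 37 °C with compound (0.1% DMSO final). MYC mRNA was measured by TaqMan qRT-PCR and normalised to the geometric mean of ACTB, GAPDH and HPRT1. Suppression was calculated relative to untreated wells.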

SU-DHL-4 cells = test: Inhibitory effect on cell viability in SU-DHL-4 cell line (Test Example 1); format: cell-based, human; conditions: 72 hours; for IC50: SU-DHL-4 (wild type) cells, calculated using the measurement results of test example 1, read-out: SU-DHL-4 WT IC50; for IC90: SU-DHL-4 cells, Cell Counting Kit-8, concentration showing 90% inhibition of cell viability, read-out: SU-DHL-4 Cell Viability Inhibition Rate IC90
Summary of the method: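 SU-DHL-4 cells were grown at 37° C. under 5% CO2 in RPMI1640 with 10 vol % heat-inactivated FBS plus penicillin/streptomycin, seeded and precultured for 18 to 25 hours, then exposed to test compound at 0.1 vol % DMSO for 72 hours. Viability was read with Cell Counting Kit-8 by absorbance at 450 nm.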

Compound	IC50 (SU-DHL-4 cells; Homo sapiens) [nM]	IC50 (SU-DHL-4 cells) [nM]	IC90 (SU-DHL-4 cells) [nM]	IC90 (SU-DHL-4 cells; Homo sapiens) [nM]	inhibition at 0.1 µM [1] [%]	Suppression Rate of MYC mRNA Expression (%) [1] [%]
CCC(=O)N1c2ccccc2[C@H](NCCCCC(=O)NCc2cn(-c3ccc(N[C@@H]4C[C@H](C)N(C(=O)CC)c5ccccc54)cc3)nn2)C[C@@H]1C (relative stereo) [Compound 12f, 5-(((2S*,4R*)-2-Methyl-1-propionyl-1,2,3,4-tetrahydroquinolin-4-yl)amino)-N-((1-(4-(((2S,4R)-2-methyl-1-propionyl-1,2,3,4-tetrahydroquinolin-4-yl)amino)phenyl)-1H-1,2,3-triazol-4-yl)methyl)pentane amide]		0.24	0.42			97.9
CCC(=O)N1c2ccccc2[C@H](NCCCCCCCC(=O)Nc2ccc(N[C@@H]3C[C@H](C)N(C(=O)CC)c4ccccc43)cc2)C[C@@H]1C (relative stereo) [Compound 12h, 8-(((2S*,4R*)-2-Methyl-1-propionyl-1,2,3,4-tetrahydroquinolin-4-yl)amino)-N-(4-(((2S,4R)-2-methyl-1-propionyl-1,2,3,4-tetrahydroquinolin-4-yl)amino)phenyl)octanamide]	3.11				96.5	
CCC(=O)N1c2ccccc2[C@H](NCC23CCC(C(=O)N4CC(C(=O)Nc5ccc(N[C@@H]6C[C@H](C)N(C(=O)CC)c7ccccc76)cc5)C4)(CC2)CC3)C[C@@H]1C (relative stereo) [Compound 17o, 1-(4-((((2S,4R)-2-Methyl-1-propionyl-1,2,3,4-tetrahydroquinolin-4-yl)amino)methyl)bicyclo[2.2.2]octane-1-carbonyl)-N-(4-(((2S*,4R*)-2-methyl-1-propionyl-1,2,3,4-tetrahydroquinolin-4-yl)amino)phenyl)azetidine-3-carboxamide]	0.78			2.18	97.1	
Cc1sc2c(c1C)C(c1ccc(C(=O)NCCCNC(=O)c3ccc(C4=N[C@@H](CC(=O)OC(C)(C)C)c5nnc(C)n5-c5sc(C)c(C)c54)cc3)cc1)=N[C@@H](CC(=O)OC(C)(C)C)c1nnc(C)n1-2 [Compound 1b, Di-tert-butyl 2,2′-[(6S,6′S)-({[propane-1,3-diylbis(azanediyl)]bis(carbonyl)}bis(4,1-phenylene))bis(2,3,9-trimethyl-6H-thieno[3,2-f][1,2,4]triazolo[4,3-a][1,4]diazepine-4,6-diyl)]diacetate]	0.65				98.4	
CCC(=O)N1c2ccccc2[C@H](Nc2ccc(C(=O)NCc3cn(-c4ccc(N[C@@H]5C[C@H](C)N(C(=O)CC)c6ccccc65)cc4)nn3)cc2)C[C@@H]1C [Compound 3a, 4-{[(2S,4R)-2-Methyl-1-propionyl-1,2,3,4-tetrahydroquinolin-4-yl]amino}-N-{[1-(4-{[(2S,4R)-2-methyl-1-propionyl-1,2,3,4-tetrahydroquinolin-4-yl]amino}phenyl)-1H-1,2,3-triazol-4-yl]methyl}benzamide]	0.025				98.1	
CCC(=O)N1c2ccccc2[C@H](Nc2ccc(C(=O)NCCNS(=O)(=O)c3ccc(N[C@@H]4C[C@H](C)N(C(=O)CC)c5ccccc54)cc3)cc2)C[C@@H]1C [Compound 4d, 4-{[(2S,4R)-2-Methyl-1-propionyl-1,2,3,4-tetrahydroquinolin-4-yl]amino}-N-{2-[(4-{[(2S,4R)-2-methyl-1-propionyl-1,2,3,4-tetrahydroquinolin-4-yl]amino}phenyl)sulfonamide]ethyl}benzamide]		4.18	13			98.3
CCC(=O)N1c2ccccc2[C@H](Nc2ccc(CNCc3cn(-c4ccc(N[C@@H]5C[C@H](C)N(C(=O)CC)c6ccccc65)cc4)nn3)cc2)C[C@@H]1C [Compound 5h, 1-((2S,4R)-2-Methyl-4-((4-((((1-(4-(((2S,4R)-2-methyl-1-propionyl-1,2,3,4-tetrahydroquinolin-4-yl)amino)phenyl)-1H-1,2,3-triazol-4-yl)methyl)amino)methyl)phenyl)amino)-3,4-dihydroquinolin-1(2H)-yl)propan-1-one]	0.06				97.3	
CCC(=O)N1c2ccccc2[C@H](Nc2ccc(Cn3cc(C(=O)Nc4ccc(N[C@@H]5C[C@H](C)N(C(=O)CC)c6ccccc65)cc4)nn3)cc2)C[C@@H]1C [Compound 5j, 1-(4-(((2S,4R)-2-Methyl-1-propionyl-1,2,3,4-tetrahydroquinolin-4-yl)amino)benzyl)-N-(4-(((2S,4R)-2-methyl-1-propionyl-1,2,3,4-tetrahydroquinolin-4-yl)amino)phenyl)-1H-1,2,3-triazolee-4-carboxamide]		0.04	0.08			96.8
CCC(=O)N1c2ccccc2[C@H](Nc2ccc(CCCC(=O)Nc3ccc(N[C@@H]4C[C@H](C)N(C(=O)CC)c5ccccc54)cc3)cc2)C[C@@H]1C [Compound 5r, N,4-Bis(4-(((2S,4R)-2-methyl-1-propionyl-1,2,3,4-tetrahydroquinolin-4-yl)amino)phenyl)butanamide]	0.53				96.7	
CCC(=O)N1c2ccccc2[C@H](Nc2ccc(NC(=O)CCCC(=O)NC3CCC(N[C@@H]4C[C@H](C)N(C(=O)CC)c5ccccc54)CC3)cc2)C[C@@H]1C (stereo partly drawn) [Compound 7o, N^1-((1R,4r)-4-(((2S,4R)-2-Methyl-1-propionyl-1,2,3,4-tetrahydroquinolin-4-yl)amino)cyclohexyl)-N^5-(4-(((2S,4R)-2-methyl-1-propionyl-1,2,3,4-tetrahydroquinolin-4-yl)amino)phenyl)glutaramide]		0.53	1.15			97.4

More lines, main results first:

IC50 (SU-DHL-4 cells; Homo sapiens) [nM]	IC50 (SU-DHL-4 cells) [nM]	IC90 (SU-DHL-4 cells) [nM]	IC90 (SU-DHL-4 cells; Homo sapiens) [nM]	Compound	inhibition at 0.1 µM [1] [%]	Suppression Rate of MYC mRNA Expression (%) [1] [%]
0.91				CCC(=O)N1c2ccccc2[C@H](NCc2ccc(C(=O)N3CC(C(=O)Nc4ccc(N[C@@H]5C[C@H](C)N(C(=O)CC)c6ccccc65)cc4)C3)cc2)C[C@@H]1C (relative stereo) [Compound 10g, 1-(4-((((2S*,4R*)-2-Methyl-1-propionyl-1,2,3,4-tetrahydroquinolin-4-yl)amino)methyl)benzoyl)-N-(4-(((2S,4R)-2-methyl-1-propionyl-1,2,3,4-tetrahydroquinolin-4-yl)amino)phenyl)azetidine-3-carboxamide]	97.2	
0.22				CCC(=O)N1c2ccccc2[C@H](Nc2ccc(C(=O)N3CC4CC3CN4C(=O)c3ccc(N[C@@H]4C[C@H](C)N(C(=O)CC)c5ccccc54)cc3)cc2)C[C@@H]1C [Compound 1k, 1,1′-{(2S,2'S,4R,4′R)-{[(2,5-Diazabicyclo[2.2.1]heptane-2,5-dicarbonyl)bis(4,1-phenylene)]bis(azanediyl)}bis[2-methyl-3,4-dihydroquinoline-4,1(2H)-diyl]}bis(propan-1-one)]	98.6	
0.03				CCC(=O)N1c2ccccc2[C@H](Nc2ccc(C(=O)NCC(=O)CNC(=O)c3ccc(N[C@@H]4C[C@H](C)N(C(=O)CC)c5ccccc54)cc3)cc2)C[C@@H]1C [Compound 1l, N,N′-(2-Oxopropane-1,3-diyl)bis(4-{[(2S,4R)-2-methyl-1-propionyl-1,2,3,4-tetrahydroquinolin-4-yl]amino}benzamide)]	98.5	
0.1				CCC(=O)N1c2ccccc2[C@H](Nc2ccc(C(=O)N3CCn4c(-c5ccc(N[C@@H]6C[C@H](C)N(C(=O)CC)c7ccccc76)cc5)cnc4C3)cc2)C[C@@H]1C [Compound 3e, 1-[(2S,4R)-2-Methyl-4-({4-[3-(4-{[(2S,4R)-2-methyl-1-propionyl-1,2,3,4-tetrahydroquinolin-4-yl]amino}phenyl)-5,6,7,8-tetrahydroimidazo[1,2-a]pyrazine-7-carbonyl]phenyl}amino)-3,4-dihydroquinolin-1(2H)-yl]propan-1-one]	98.3	
0.31				CCC(=O)N1c2ccccc2[C@H](Nc2ccc(NC(=O)CNCC(=O)Nc3ccc(N[C@@H]4C[C@H](C)N(C(=O)CC)c5ccccc54)cc3)cc2)C[C@@H]1C [Compound 5d, 2,2′-Azanediylbis(N-(4-(((2S,4R)-2-methyl-1-propionyl-1,2,3,4-tetrahydroquinolin-4-yl)amino)phenyl)acetamide)]	97.5	
0.09				CCC(=O)N1c2ccccc2[C@H](Nc2ccc(Cc3cnc4n3CCN(C(=O)c3ccc(N[C@@H]5C[C@H](C)N(C(=O)CC)c6ccccc65)cc3)C4)cc2)C[C@@H]1C [Compound 5q, 1-((2S,4R)-2-Methyl-4-((4-((7-(4-(((2S,4R)-2-methyl-1-propionyl-1,2,3,4-tetrahydroquinolin-4-yl)amino)benzoyl)-5,6,7,8-tetrahydroimidazo[1,2-a]pyrazin-3-yl)methyl)phenyl)amino)-3,4-dihydroquinolin-1(2H)-yl)propan-1-one]	97.2	
0.003				CCC(=O)N1c2ccccc2C(Nc2ccc(NC(=O)C#CCNC(=O)c3ccc(N[C@@H]4C[C@H](C)N(C(=O)CC)c5ccccc54)cc3)cc2)CC1C (stereo partly drawn) [Compound 6h, 4-(((2S,4R)-2-Methyl-1-propionyl-1,2,3,4-tetrahydroquinolin-4-yl)amino)-N-(4-((4-((2-methyl-1-propionyl-1,2,3,4-tetrahydroquinolin-4-yl)amino)phenyl)amino)-4-oxobut-2-yn-1-yl)benzamide]	97.2	
